Earlier results as cited in patent publication US8642603B2, “Substituted dihydro and tetrahydro oxazolopyrimidinones, preparation and use thereof” (Sanofi, priority 2007, dated 2014).

What was measured:
[1] = tested on: positive and negative symptoms of schizophrenia; conditions: compared to placebo
[2] = tested on: pentylenetetrazole- and picrotoxin-induced seizures; conditions: in vivo
healthy human subjects = conditions: pretreatment

Structure (SMILES): N[C@@]1(C(=O)O)CO[C@H]2[C@H](C(=O)O)[C@H]21 [LY379268]
- effect on REM sleep and fast EEG (rat): suppresses rapid eye movement (REM) sleep and fast EEG

Structure (SMILES): CSCC[C@H](N)C(=O)N[C@@]1(C(=O)O)CS(=O)(=O)[C@H]2[C@H](C(=O)O)[C@H]21 [LY2140023]
- positive and negative symptoms of schizophrenia [1]: statistically significant improvements

Structure (SMILES): N[C@H](C(=O)O)c1ccc(C(=O)O)c(O)c1 [(S)-4-carboxy-3-hydroxyphenylglycine]
- protection against audiogenic seizures (DBA/2 mice): protects against audiogenic seizures

Structure (SMILES): N[C@]1(C(=O)O)[C@H]2[C@@H](C[C@H]1OCc1ccc(Cl)c(Cl)c1)[C@]2(F)C(=O)O [MGS0039]
- antidepressant-like effects (some animal models): dose-dependent antidepressant-like effects

Structure (SMILES): Cc1c(OCc2cccc(-c3ccc(C(=O)O)cc3)c2)cc2c(c1C)C(=O)C(C1CCCC1)C2 (stereo not shown) [biphenyl-indanone A]
- antipsychotic- and anxiolytic-like effects (mice): antipsychotic- and anxiolytic-like effects

Structure (SMILES): N[C@@]1(C(=O)O)CC[C@H]2[C@H](C(=O)O)[C@H]21 [LY354740]
- effect on pentylenetetrazole- and picrotoxin-induced seizures [2]: attenuates pentylenetetrazole- and picrotoxin-induced seizures
- effect on disruption of working memory by ketamine (healthy human subjects): attenuation of the disruptive effects
